# In ChEMBL document CHEMBL1201862, “PubChem BioAssay data set” (2004):
#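 48-hour exposure; five concentrations; linearly interpolated endpoints. GI50 marks 50% less growth.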 Calls of active or inactive are those of the source. Rule as the data show it: active = GI50 up to about 1.1 µM and inactive = higher.
# What was measured:
# Assay in all cases: inhibition of tumour cell growth, NCI panel, 48 h
# UACC-62 = system: UACC-62
# HCC 2998 = system: HCC 2998
# SF-268 = system: SF-268
# SK-MEL-2 = system: SK-MEL-2
# TK-10 = system: TK-10
# RXF 393 = system: RXF 393
# OVCAR-3 = system: OVCAR-3
# T47D = system: T47D
# SW-620 = system: SW-620
# SF-295 = system: SF-295
# 786-0 = system: 786-0
# U-251 = system: U-251
# RPMI-8226 = system: RPMI-8226
# MOLT-4 = system: MOLT-4
# MDA-MB-231 = system: MDA-MB-231
# CCRF-CEM = system: CCRF-CEM
# EKVX = system: EKVX
# CAKI-1 = system: CAKI-1
# MDA-MB-435 = system: MDA-MB-435
# SNB-75 = system: SNB-75
# A549 = system: A549
# SN12C = system: SN12C
# HCT-15 = system: HCT-15
# SNB-19 = system: SNB-19
# DU-145 = system: DU-145
# BT-549 = system: BT-549
# UACC-257 = system: UACC-257
# OVCAR-8 = system: OVCAR-8
# NCI-H522 = system: NCI-H522
# KM12 = system: KM12
# NCI-H23 = system: NCI-H23
# NCI-H226 = system: NCI-H226
# K562 = system: K562
# Malme-3M = system: Malme-3M
# NCI/ADR-RES = system: NCI/ADR-RES
# HCT-116 = system: HCT-116
# COLO 205 = system: COLO 205
# OVCAR-5 = system: OVCAR-5
# IGROV-1 = system: IGROV-1
# PC-3 = system: PC-3
# NCI-H460 = system: NCI-H460
# MDA-N = system: MDA-N
# ACHN = system: ACHN
# LOX IMVI = system: LOX IMVI
# HOP-62 = system: HOP-62
# A498 = system: A498
# SK-MEL-28 = system: SK-MEL-28
# SK-OV-3 = system: SK-OV-3
# HT-29 = system: HT-29
# UO-31 = system: UO-31
# SK-MEL-5 = system: SK-MEL-5
# OVCAR-4 = system: OVCAR-4
# M14 = system: M14
# SR = system: SR
# MCF7 = system: MCF7
# HOP-92 = system: HOP-92
# SF-539 = system: SF-539
# HL-60 = system: HL-60
# Hs-578T = system: Hs-578T
compound,measurement,setting,value
O=C(CCC1CCCCC1)NCc1ccc(C(=O)O)cc1,GI50,UACC-62,> 100 µM (inactive)
same,GI50,HCC 2998,> 100 µM (inactive)
same,GI50,SF-268,> 100 µM (inactive)
same,GI50,SK-MEL-2,> 100 µM (inactive)
same,GI50,TK-10,> 100 µM (inactive)
same,GI50,RXF 393,> 100 µM (inactive)
same,GI50,OVCAR-3,> 100 µM (inactive)
same,GI50,T47D,> 100 µM (inactive)
same,GI50,SW-620,> 100 µM (inactive)
same,GI50,SF-295,> 100 µM (inactive)
same,GI50,786-0,> 100 µM (inactive)
same,GI50,U-251,> 100 µM (inactive)
same,GI50,RPMI-8226,> 100 µM (inactive)
same,GI50,MOLT-4,> 100 µM (inactive)
same,GI50,MDA-MB-231,> 100 µM (inactive)
same,GI50,CCRF-CEM,47.1 µM (inactive)
same,GI50,EKVX,56.9 µM (inactive)
same,GI50,CAKI-1,> 100 µM (inactive)
same,GI50,MDA-MB-435,> 100 µM (inactive)
same,GI50,SNB-75,> 100 µM (inactive)
same,GI50,A549,> 100 µM (inactive)
same,GI50,SN12C,> 100 µM (inactive)
same,GI50,HCT-15,> 100 µM
same,GI50,SNB-19,> 100 µM (inactive)
same,GI50,DU-145,> 100 µM (inactive)
same,GI50,BT-549,> 100 µM (inactive)
same,GI50,UACC-257,> 100 µM (inactive)
same,GI50,OVCAR-8,> 100 µM (inactive)
same,GI50,NCI-H522,> 100 µM (inactive)
same,GI50,KM12,> 100 µM (inactive)
same,GI50,NCI-H23,> 100 µM (inactive)
same,GI50,NCI-H226,> 100 µM (inactive)
same,GI50,K562,> 100 µM (inactive)
same,GI50,Malme-3M,> 100 µM (inactive)
same,GI50,NCI/ADR-RES,> 100 µM (inactive)
same,GI50,HCT-116,> 100 µM (inactive)
same,GI50,COLO 205,> 100 µM (inactive)
same,GI50,OVCAR-5,> 100 µM (inactive)
same,GI50,IGROV-1,> 100 µM (inactive)
same,GI50,PC-3,> 100 µM (inactive)
same,GI50,NCI-H460,> 100 µM (inactive)
same,GI50,MDA-N,> 100 µM (inactive)
same,GI50,ACHN,> 100 µM (inactive)
same,GI50,LOX IMVI,> 100 µM (inactive)
same,GI50,HOP-62,> 100 µM (inactive)
same,GI50,A498,> 100 µM (inactive)
same,GI50,SK-MEL-28,> 100 µM (inactive)
same,GI50,SK-OV-3,> 100 µM (inactive)
same,GI50,HT-29,> 100 µM (inactive)
same,GI50,UO-31,> 100 µM (inactive)
same,GI50,SK-MEL-5,> 100 µM (inactive)
same,GI50,OVCAR-4,> 100 µM (inactive)
same,GI50,M14,> 100 µM (inactive)
same,GI50,SR,> 100 µM (inactive)
same,GI50,MCF7,> 100 µM (inactive)
same,GI50,HOP-92,> 100 µM (inactive)
same,GI50,SF-539,> 100 µM (inactive)
COc1cc(C2c3cc4c(cc3OC(NN)C2C)OCO4)cc(OC)c1O (configuration not stated),GI50,UACC-62,4.92 µM (inactive)
same,GI50,HCC 2998,12.4 µM (inactive)
same,GI50,SF-268,28.3 µM (inactive)
same,GI50,SK-MEL-2,3.3 µM (inactive)
same,GI50,TK-10,26.2 µM (inactive)
same,GI50,RXF 393,15.3 µM (inactive)
same,GI50,OVCAR-3,3.66 µM (inactive)
same,GI50,T47D,7.28 µM (inactive)
same,GI50,SW-620,4.73 µM (inactive)
same,GI50,SF-295,3.85 µM (inactive)
same,GI50,786-0,11.3 µM (inactive)
same,GI50,U-251,7.23 µM (inactive)
same,GI50,RPMI-8226,3.95 µM (inactive)
same,GI50,MDA-MB-231,9.2 µM (inactive)
same,GI50,CAKI-1,10.4 µM (inactive)
same,GI50,MDA-MB-435,2.32 µM (inactive)
same,GI50,SNB-75,4.28 µM (inactive)
same,GI50,A549,8.2 µM (inactive)
same,GI50,SN12C,4.3 µM (inactive)
same,GI50,HCT-15,3.72 µM
same,GI50,SNB-19,32.5 µM (inactive)
same,GI50,HL-60,2.24 µM (inactive)
same,GI50,DU-145,15.3 µM (inactive)
same,GI50,BT-549,10.3 µM (inactive)
same,GI50,UACC-257,18.5 µM (inactive)
same,GI50,OVCAR-8,16.5 µM (inactive)
same,GI50,NCI-H522,5.96 µM (inactive)
same,GI50,KM12,6.08 µM (inactive)
same,GI50,NCI-H23,27 µM (inactive)
same,GI50,NCI-H226,25.4 µM (inactive)
same,GI50,K562,3.08 µM (inactive)
same,GI50,Malme-3M,5.71 µM (inactive)
same,GI50,NCI/ADR-RES,4.52 µM (inactive)
same,GI50,HCT-116,4.63 µM (inactive)
same,GI50,COLO 205,15.2 µM (inactive)
same,GI50,OVCAR-5,31.6 µM (inactive)
same,GI50,IGROV-1,5.94 µM (inactive)
same,GI50,PC-3,10.4 µM (inactive)
same,GI50,MDA-N,1.84 µM (inactive)
same,GI50,SK-MEL-28,6.75 µM (inactive)
same,GI50,HT-29,6.22 µM (inactive)
same,GI50,UO-31,19.8 µM (inactive)
same,GI50,SK-MEL-5,4.13 µM (inactive)
same,GI50,OVCAR-4,26.8 µM (inactive)
same,GI50,M14,10.4 µM (inactive)
same,GI50,MCF7,8.09 µM (inactive)
same,GI50,HOP-92,23.6 µM (inactive)
same,GI50,SF-539,11.9 µM (inactive)
CC(NCCN(C)C)C1CCC2C3CCc4cc(O)ccc4C3CCC12C (configuration not stated),GI50,UACC-62,1.93 µM (inactive)
same,GI50,SF-268,5.28 µM (inactive)
same,GI50,SK-MEL-2,1.91 µM (inactive)
same,GI50,TK-10,2.72 µM (inactive)
same,GI50,RXF 393,1.85 µM (inactive)
same,GI50,OVCAR-3,1.88 µM (inactive)
same,GI50,T47D,2.34 µM (inactive)
same,GI50,SW-620,3.33 µM (inactive)
same,GI50,SF-295,2.59 µM (inactive)
same,GI50,786-0,1.83 µM (inactive)
same,GI50,U-251,2.07 µM (inactive)
same,GI50,RPMI-8226,2.34 µM (inactive)
same,GI50,MOLT-4,1.85 µM (inactive)
same,GI50,MDA-MB-231,1.97 µM (inactive)
same,GI50,CCRF-CEM,0.723 µM (active)
same,GI50,EKVX,5.19 µM (inactive)
same,GI50,CAKI-1,2.07 µM (inactive)
same,GI50,MDA-MB-435,2.05 µM (inactive)
same,GI50,SNB-75,3.14 µM (inactive)
same,GI50,A549,3.65 µM (inactive)
same,GI50,SN12C,2 µM (inactive)
same,GI50,HCT-15,2.79 µM
same,GI50,SNB-19,3.54 µM (inactive)
same,GI50,HL-60,2.09 µM (inactive)
same,GI50,DU-145,6.18 µM (inactive)
same,GI50,BT-549,17.4 µM (inactive)
same,GI50,UACC-257,2.06 µM (inactive)
same,GI50,OVCAR-8,2.79 µM (inactive)
same,GI50,NCI-H522,3.2 µM (inactive)
same,GI50,Hs-578T,4.17 µM (inactive)
same,GI50,KM12,3.21 µM (inactive)
same,GI50,NCI-H23,4.45 µM (inactive)
same,GI50,NCI-H226,17.8 µM (inactive)
same,GI50,K562,1.86 µM (inactive)
same,GI50,Malme-3M,1.68 µM (inactive)
same,GI50,NCI/ADR-RES,2.86 µM (inactive)
same,GI50,HCT-116,2.66 µM (inactive)
same,GI50,COLO 205,1.84 µM (inactive)
same,GI50,OVCAR-5,5.42 µM (inactive)
same,GI50,IGROV-1,4.97 µM (inactive)
same,GI50,PC-3,2.82 µM (inactive)
same,GI50,NCI-H460,2.2 µM (inactive)
same,GI50,ACHN,2 µM (inactive)
same,GI50,LOX IMVI,2.03 µM (inactive)
same,GI50,HOP-62,3.24 µM (inactive)
same,GI50,A498,4.01 µM (inactive)
same,GI50,SK-MEL-28,2.19 µM (inactive)
same,GI50,SK-OV-3,3.69 µM (inactive)
same,GI50,HT-29,2.89 µM (inactive)
same,GI50,UO-31,1.81 µM (inactive)
same,GI50,SK-MEL-5,1.71 µM (inactive)
same,GI50,OVCAR-4,3.02 µM (inactive)
same,GI50,M14,1.67 µM (inactive)
same,GI50,SR,1.44 µM (inactive)
same,GI50,MCF7,2.96 µM (inactive)
same,GI50,HOP-92,2.81 µM (inactive)
same,GI50,SF-539,4.76 µM (inactive)
